Source: US20100324319A1, “Tame based chelators and uses thereof” (priority 2003, published 2010)

Tests used:
[1] = transchelation experiments with ^67Ga^3+ labelled chelators, DTPA as competing ligand; type: physicochemical; settings: ^67Ga labelled, after 10 days
Method: (§1) The chelators defined by compounds 8 and 15 in FIG. 1 and as described, supra, were tested in transchelation experiments, using ^111In^3+, and ^67Ga^3+, using the known chelator DTPA as a competing ligand. Labelling was carried out using standard methods.
Labelled TAME-HexA was 94% intact after 10 days, and 99% of the labelled TAME-HexB was stable after the same period of time.

[2] = transchelation experiments with ^111In^3+ labelled chelators, DTPA as competing ligand; type: physicochemical; settings: ^111In labelled, after 24 hours
Method: as §1

labelled chelator intact / stable [1]: 99% | labelled material intact [2]: about 10%
Structure (SMILES): O=C(O)CN(CC(=O)O)CC(CN(CC(=O)O)CC(=O)O)(CN(CC(=O)O)CC(=O)O)CN(Cc1ccccc1)Cc1ccccc1 [Compound 15, 2-[Bis(carboxymethylamino)methyl]-2-[(dibenzylamino)methyl]-propylene-1,3-dinitrilotetraacetic acid]
